Where two headings read alike, the source gives them in different places.
Tests used:
EKVX = experiment: NCI-60 drug screen (SRB), NSCLC line EKVX; format: cell-based, human; settings: for LC50 / GI50: Homo sapiens
Experimental: (§1) As a primary screening, seven selected compounds were submitted to the National Cancer Institute (NCI) cell lines screen for evaluation of their anticancer activity. From the data analysis, it follows that approximately 95% of the actives from the 60 cell lines screen can be identified. The detailed methods used for the 60 cell lines panel have been described elsewhere [54]–[59]. Briefly, cellular protein levels were determined after 48 hours of drug exposure by SRB colorimetry. Through the use of a time zero cell control, the cell growth can be determined for each cell line thus allowing calculations of GI50, TGI, and LC50. Comparison to plates not exposed to drug permits determination of concentration and times of exposure conferring GI50, TGI, and LC50. […] By these criteria, seven compounds reported from our compounds bank were all active and passed on for evaluation in the full panel of 60 human tumor cell lines. The panel is organized into nine subpanels representing diverse histology: leukemia, melanoma, and cancers of the lung, colon, kidney, ovary, breast, prostate, and central nervous system.

HEL299 cells = experiment: MTT cytotoxicity assay, HEL299 normal fibroblasts; format: cell-based; settings: Homo sapiens, HEL 299, 48 h of drug exposure
Experimental: Non-small cell lung cancer cells A549 and Oct-4- and Nanog-overexpressed A549 clone (clone #3; A3), presented the properties of cancer stem-like cells, as well as epithelial-mesenchymal transdifferentiation, according to our previous study. They were grown in the same conditions as RPMI 1640 media supplemented with 10% fetal bovine serum (FBS), 100 units/mL penicillin, […] streptomycin, 1 mM sodium pyruvate, 2 mM l-glutamine and 1% non-essential amino acid (NEAA) in a humidified atmosphere with 5% CO2 at 37°C. Normal fibroblast cells HEL299 from American Type Culture Collection (ATCC) were grown in MEM media supplemented with 10% FBS, 100 units/mL penicillin, […] streptomycin, 1 mM sodium pyruvate, 2 mM l-glutamine and 1% NEAA, in a humidified atmosphere with 5% CO2 at 37°C.
The tetrazolium reagent (MTT; 3-(4,5-dimethylthiazol-2-yl)-2,5-diphenyl-tetrazolium bromide, USB) was designed to yield a colored formazan upon metabolic reduction by viable cells, [61]. Approximately 5×10^4 cells were plated onto each well of a 24-well plate and incubated in 5% CO2 at 37°C for 24 hours. To assess the in vitro cytotoxicity, each compound was dissolved in DMSO and prepared immediately before the experiments and then was diluted into the complete medium before being added to cell cultures. Test compounds were then added to the culture medium in various designated concentrations. After 48 hours, an amount of 100 µl of MTT was added to each well, and the samples were incubated at 37°C for 2 h. 100 µl DMSO was added to each well. The absorbency at 560 nm and reference absorbency at 670 nm were measured using an ELISA reader.

NCI-H322M = experiment: NCI-60 drug screen (SRB), NSCLC line NCI-H322M; format: cell-based, human; settings: for LC50 / GI50: Homo sapiens
Experimental: as §1

PARP-1 = target: T1, PARP-1 (Homo sapiens, UniProt P09874); experiment: PARP inhibitory assay (histone-coated plate, colorimetric); format: biochemical
T1 construct: purchased
Experimental: We used histone-coated 96-well plate treated with seven putative PARP-1 inhibitors or well-known PARP-1 inhibitors (3-AB), and then added PARP enzyme to each well. PARP enzyme catalyzes the NAD-dependent addition of poly (ADP-ribose) to histone, and diluted Strp-HRP could bind to PARylation histone. TACS-Sapphire™ yielded blue under the HRP existence. In order to systematically evaluate the potential anticancer activity, the compounds were tested for their cytotoxicity in vitro against 60 human cancer lines in the NCI anticancer drug screen as well as for dose response curves and telomerase activity. Cell growth was analyzed by the MTT assay, with differences between dose-response curves analyzed non-parametrically. Telomerase activity was detected by a modified version of the PCR-based assay and TRAP assay. […] However, PARP inhibitory effects had no difference at 1 and 10 µM. As described above, NSC746364, NSC746366 and NSC749232 show dose-dependency only at low concentrations. […] NSC747854 had dose-dependent PARP inhibitory manners at three different concentrations, and reached the maximum inhibitory effect of 86% at 10 µM (Table 4). […] In this investigation, we continued to focus our attention on the role of NSC747854 and to understand the basis of pharmacophore selectivity. Of particular note is the significant difference with these selected compounds, compared with that of 3-AB and PJ-34. […] An electron-rich aromatic ring system, including a carboxamide group, should have at least a hydrogen atom on the amide nitrogen. The amidinium moiety is known to contribute to the stabilization of DNA recognition element through electrostatic and hydrogen bonding interactions. Therefore, hydrogen bonds are frequently used as recognition elements due to their directionality and also due to being attractive factors to the biological activity (Figure 1). Many classes of drugs have substantial curvature, high DNA affinity, binding to the minor-groove or major-groove, interference with DNA-associated enzymes (e.g. telomerase), and Poly (ADP-ribose) polymerase, PARP. […] This approach greatly expands the utility of the substituents and related pharmacophore for the construction of drugs in general. Therefore, it is desirable to design PARP inhibitors in accordance with various anticancer parameters. It was first reported that anthraquinone analogues are potent human PARP inhibitors.
Strip wells were removed from the wrapper and 50 µl of 1X PARP Buffer was added to each well to rehydrate the histones. They were incubated at room temperature for 30 minutes. The 1X PARP buffer was removed from the wells by tapping the strip wells on paper towels. The serial dilutions of inhibitor of interest were added to appropriate wells. The diluted PARP enzyme (0.5 unit/well) was then added to the wells containing inhibitor. They were incubated for 10 minutes at room temperature. The PARP Enzyme-High Specific Activity (PARP-HAS) standard was serially diluted in cold micro-tubes with 1X PARP buffer such that the total activity was 1 unit/25 µl, 0.5 units/25 µl, 0.25 units/25 µl, 0.1 units/25 µl, 0.05 units/25 µl, 0.025 units/25 µl, and 0.01 units/25 µl, respectively. The 25 µl of each standard was added to triplicate wells. The 25 µl of 1X PARP cocktail were distributed into each well by using a multichannel pipettor. The final reaction volume is 50 µl. They were incubated along with the strip wells at room temperature for 60 minutes. The strip wells were washed 2 times with 1X PBS +0.1% Triton X-100 (200 µl/well) followed by 2 washes with 1X PBS. All the liquid was removed following each wash by tapping strip wells onto paper towels. The 50 µl diluted Strep-HRP were added per well. They were incubated at room temperature for 60 minutes. The strip wells were washed 2 times with 1X PBS +0.1% Triton X-100 (200 µl/well) followed by 2 washes with 1X PBS. All the liquid was removed following each wash by tapping strip wells onto paper towels. […]

[1] = 48 hours drug exposure, SRB, read-out: GI50
[2] = NCI in vitro 60-cell lines Drug Screen, read-out: -Log GI50 (converted)

T1 sequence (P09874 whole entry): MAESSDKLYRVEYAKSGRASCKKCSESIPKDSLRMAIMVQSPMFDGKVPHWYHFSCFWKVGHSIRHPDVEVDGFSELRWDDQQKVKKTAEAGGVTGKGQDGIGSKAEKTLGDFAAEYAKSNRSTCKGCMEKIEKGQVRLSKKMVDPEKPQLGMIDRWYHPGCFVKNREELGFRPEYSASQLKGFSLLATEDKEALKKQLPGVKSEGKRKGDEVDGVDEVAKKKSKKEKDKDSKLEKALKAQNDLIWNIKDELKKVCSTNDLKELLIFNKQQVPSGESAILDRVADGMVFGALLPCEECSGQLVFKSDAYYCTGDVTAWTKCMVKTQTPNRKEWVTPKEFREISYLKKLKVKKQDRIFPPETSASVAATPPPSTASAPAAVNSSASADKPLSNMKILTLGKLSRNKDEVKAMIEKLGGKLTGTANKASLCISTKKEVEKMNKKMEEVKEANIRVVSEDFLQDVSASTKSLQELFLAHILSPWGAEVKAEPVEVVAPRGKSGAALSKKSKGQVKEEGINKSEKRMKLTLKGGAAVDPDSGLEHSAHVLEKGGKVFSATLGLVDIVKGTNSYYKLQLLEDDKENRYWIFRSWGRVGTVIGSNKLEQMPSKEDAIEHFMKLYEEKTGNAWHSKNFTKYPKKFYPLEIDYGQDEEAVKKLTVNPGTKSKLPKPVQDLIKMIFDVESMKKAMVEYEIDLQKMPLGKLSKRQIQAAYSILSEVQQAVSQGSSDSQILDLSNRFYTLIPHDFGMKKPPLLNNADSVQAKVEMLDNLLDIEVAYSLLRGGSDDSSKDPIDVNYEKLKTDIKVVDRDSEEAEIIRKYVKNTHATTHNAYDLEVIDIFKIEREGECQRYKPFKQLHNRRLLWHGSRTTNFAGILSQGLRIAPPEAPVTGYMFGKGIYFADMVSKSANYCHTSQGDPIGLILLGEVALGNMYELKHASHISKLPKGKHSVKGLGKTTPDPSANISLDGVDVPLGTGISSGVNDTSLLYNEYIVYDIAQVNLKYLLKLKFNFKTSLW

Row | Compound | TGI (EKVX; 48 hours drug exposure, SRB) [µM] | LC50 (EKVX; 48 hours drug exposure, SRB) [µM] | GI50 (EKVX; [1]) [µM] | GI50 (EKVX; [2]) [µM] | IC50 (HEL299 cells) [µM] | TGI (NCI-H322M; 48 hours drug exposure, SRB) [µM] | LC50 (NCI-H322M; 48 hours drug exposure, SRB) [µM] | GI50 (NCI-H322M; [1]) [µM] | GI50 (NCI-H322M; [2]) [µM] | inhibition at 0.1 µM (PARP-1) [%] | inhibition at 1 µM (PARP-1) [%] | inhibition at 10 µM (PARP-1; 10 µM) [%] | PARP inhibitory activity (%) (PARP-1; 10 µM)
1 | CN(C)CC(=O)Nc1ccc2c(c1)C(=O)c1cc(NC(=O)CN(C)C)ccc1C2=O [NSC746364] | 31.4 | 77.4 | 12.8 | 12.9 | 5.67 | 4.91 | 83.1 | 1.86 | 1.86 | 31 | 54 | 56 | 
2 | CN1CCN(Cc2nc3ccc4c(c3[nH]2)C(=O)c2ccccc2C4=O)CC1 [NSC749235] | 28.8 | > 100 | 6.69 | 6.76 | 19.6 | 43.3 | > 100 | 8.7 | 8.71 | 40 | 28 | 58 | 
3 | O=C(CCN1CCCC1)Nc1ccc2c(c1)C(=O)c1cc(NC(=O)CCN3CCCC3)ccc1C2=O [NSC746366] | 20.4 | > 100 | 3.57 | 3.55 | 13.4 | 10.9 | 42 | 1.81 | 1.82 | 16 | 45 | 47 | 
4 | CN(C)CCCSc1nc2ccc3c(c2[nH]1)C(=O)c1ccccc1C3=O [NSC747854] | 20.1 |  | 4.2 | 4.17 | 27.8 | 20.6 |  | 0.72 | 0.724 | 30 | 57 |  | 65
5 | Cc1ccc(C(=O)Nc2c(NC(=O)CCl)ccc3c2C(=O)c2ccccc2C3=O)cc1 [NSC749232] | 14.9 | > 100 | 1.98 | 2 | 27.1 | 13.7 | 45.4 | 3.76 | 3.8 | 42 | 51 | 52 | 
6 | CCN(CC)CCC(=O)Nc1ccc2c(c1)C(=O)c1cc(NC(=O)CCN(CC)CC)ccc1C2=O [NSC746365] | 11.0 | 34.6 | 3.05 | 3.02 | 7.19 |  | 4.71 | 2.85 | 2.82 | 50 | 56 | 51 | 

Reference: article PMC3581553, “New Approaches of PARP-1 Inhibitors in Human Lung Cancer Cells and Cancer Stem-Like Cells by Some Selected Anthraquinone-Derived Small Molecules” (PLoS ONE, 2013)
